Measured values taken from patent US20100256243A1, “Dosing Regimen for the Treatment of Alzheimer's Disease With Sulfonyl Fluorides” (priority 2009, published 2010).
Changes are numbered by the printed parent chain. Several values for one entry are separate records, joined by “and”; a condition that tells them apart may be missing. Identical values can stand only once. Entries after “also recorded” stand apart in the source; their conditions may differ.

Key:
rats [1] = experiment: Daily dosing with 1.0 mg/kg MSF/peanut oil in rats (clinical signs of distress and/or death); format: in vivo
rats [2] = experiment: Alternating day dosing with 2.0 mg/kg MSF/peanut oil in rats (death); format: in vivo; settings: 2 mg/kg every other day; for Number Alive/Numbered Treated / lethality: oral
Method: To confirm the “pulsing” theory for MSF administration, the inventor continued the experiment described above and extended MSF treatment to double the total lethal dose observed in Example 1 (from 4 mg/kg to 8 mg/kg). Rats in were treated at 2 mg/kg/every other day for 2 more round (total of 8 mg/kg in 8 days).

animals = experiment: Acute oral toxicity (LD50) of MSF in animals; format: in vivo, rats
Method: The acute oral LD50, as indicated by the data, was determined to be greater than 3 mg/kg but less than 4 mg/kg.

[3] = target: T1, brain acetylcholinesterase (Rattus norvegicus, UniProt P37136); settings: cited from earlier work
T1 construct: host or cells: rodent brain, dosed in vivo
T1 sequence (P37136 32-614): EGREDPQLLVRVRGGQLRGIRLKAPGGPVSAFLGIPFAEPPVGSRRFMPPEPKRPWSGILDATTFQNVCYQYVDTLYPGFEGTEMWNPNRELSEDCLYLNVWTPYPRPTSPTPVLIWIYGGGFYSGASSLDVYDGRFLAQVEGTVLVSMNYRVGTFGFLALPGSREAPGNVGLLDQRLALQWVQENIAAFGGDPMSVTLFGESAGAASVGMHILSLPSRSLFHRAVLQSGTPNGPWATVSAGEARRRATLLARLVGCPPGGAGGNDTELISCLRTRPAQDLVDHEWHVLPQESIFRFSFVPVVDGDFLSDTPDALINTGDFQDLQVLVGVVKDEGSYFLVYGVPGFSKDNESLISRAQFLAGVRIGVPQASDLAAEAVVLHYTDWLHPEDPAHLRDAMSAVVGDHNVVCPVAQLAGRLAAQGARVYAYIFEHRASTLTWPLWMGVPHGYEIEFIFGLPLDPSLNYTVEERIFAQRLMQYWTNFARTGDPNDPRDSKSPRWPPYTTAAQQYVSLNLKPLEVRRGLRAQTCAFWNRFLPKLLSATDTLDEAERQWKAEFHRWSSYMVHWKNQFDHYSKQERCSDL

[4] = system: brain acetylcholinesterase; settings: cited from earlier work
brain AChE [5] = target: T2, brain AChE (Mus musculus, UniProt P21836); settings: ex vivo, mice, without toxicity (Kobayashi et al., 1999); cited from earlier work
T2 construct: host or cells: mouse brain, ex vivo
T2 sequence (P21836 32-614): T1 sequence (P37136 32-614) with I59V, T109A, S128A, T144A, S271A, D313E, A392T, V467T, Q478K, R499Q

brain AChE [6] = target: T3, brain AChE (Rattus norvegicus, UniProt P37136); settings: ex vivo, rats, without toxicity (Moss et al., 1985); cited from earlier work
T3 construct: host or cells: rat brain, ex vivo
T3 sequence (P37136 32-614): T1 sequence (P37136 32-614)

[7] = target: T4, acetylcholinesterase in the brain (Rattus norvegicus, UniProt P37136); settings: cerebrally ischemic animals (U.S. Patent Publication 2003/0087959); cited from earlier work
T4 construct: host or cells: brain of cerebrally ischemic animals, dosed in vivo
T4 sequence (P37136 32-614): T1 sequence (P37136 32-614)

[8] = system: cerebrally ischemic animals; settings: compared to untreated controls (U.S. Patent Publication 2003/0087959); cited from earlier work
brain AChE [9] = settings: oral MSF 0.5 mg/kg daily, after 5 days of administration; cited from earlier work
[10] = system: enzyme in the periphery (cholinesterase); settings: rodents, administered daily at low doses (Moss et al., 1988); cited from earlier work
human cortex AChE = target: T5, human cortex AChE (Homo sapiens, UniProt P22303); settings: in vitro (Pacheco et al., 1995); cited from earlier work
T5 construct: host or cells: human cortex, in vitro
T5 sequence (P22303 32-614): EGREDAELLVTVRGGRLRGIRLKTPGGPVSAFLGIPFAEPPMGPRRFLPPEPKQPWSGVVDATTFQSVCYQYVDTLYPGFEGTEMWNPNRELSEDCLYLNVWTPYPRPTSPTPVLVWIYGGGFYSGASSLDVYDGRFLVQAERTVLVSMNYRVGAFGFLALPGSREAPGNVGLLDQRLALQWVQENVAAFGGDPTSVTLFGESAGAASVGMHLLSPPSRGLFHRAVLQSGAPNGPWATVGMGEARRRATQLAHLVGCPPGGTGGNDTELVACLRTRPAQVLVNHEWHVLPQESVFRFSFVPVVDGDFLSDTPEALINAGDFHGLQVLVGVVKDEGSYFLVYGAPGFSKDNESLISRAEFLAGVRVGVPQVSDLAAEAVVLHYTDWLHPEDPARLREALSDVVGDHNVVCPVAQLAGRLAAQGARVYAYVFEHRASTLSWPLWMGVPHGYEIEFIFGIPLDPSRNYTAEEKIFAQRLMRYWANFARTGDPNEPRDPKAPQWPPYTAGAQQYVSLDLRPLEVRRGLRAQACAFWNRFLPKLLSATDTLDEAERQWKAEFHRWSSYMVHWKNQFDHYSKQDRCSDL

rats [11] = settings: daily doses (Palacios-Esquivel et al., 1993); cited from earlier work
aged rats = settings: daily doses (Malin et al., 1993); cited from earlier work
rats [12] = settings: daily doses (Borlongan et al., 2005); cited from earlier work
[13] = system: patients with senile dementia of Alzheimer type; settings: patients with senile dementia of Alzheimer type (U.S. Pat. No. 5,798,392); cited from earlier work
[14] = system: septal choline acetyltransferase; settings: cerebrally ischemic animals, versus vehicle-treated animals (U.S. Patent Publication 2003/0087959); cited from earlier work
[15] = relatively small doses over a long period of time (Moss et al., 1988; 1985)

SMILES: CS(=O)(=O)F [MSF, methanesulfonyl fluoride]
- clinical signs of distress and/or death (rats [1]; oral gavage, 1.0 mg/kg daily, MSF/peanut oil 1.0 mg/ml, 1 mg/kg): high toxicity and animal deaths
- Number Alive/Numbered Treated (rats [1]; oral, 1 mg/kg daily, 4 days): 0/7 (4 males + 3 female)
- animals survived (rats [2]; total of 8 mg/kg in 8 days): 83.3%
- Number Alive/Numbered Treated (rats [2]; 4 days (total 4 mg/kg)): 6/6 (3 males + 3 female)
- lethality (rats [2]; 4 days (total 4 mg/kg)): no lethal event; also recorded: By Day 4, all rats were alive and it was decided to continue the treatment
- Number Alive/Numbered Treated (rats [2]; 8 days (total 8 mg/kg)): 5/6 (3 males + 3 female) and 5/6
- lethality (rats [2]; 8 days (total 8 mg/kg), follow-up over two weeks): 1 animal was found dead
- Number Dead/Number Treated, Combination (animals; 1 mg/kg (0.4 mg/mL)): 0/10
- Number Dead/Number Treated, Females (animals; 1 mg/kg (0.4 mg/mL)): 0/5
- Number Dead/Number Treated, Males (animals; 1 mg/kg (0.4 mg/mL)): 0/5
- Number Dead/Number Treated, Combination (animals; 2 mg/kg (0.8 mg/mL)): 0/10
- Number Dead/Number Treated, Females (animals; 2 mg/kg (0.8 mg/mL)): 0/5
- Number Dead/Number Treated, Males (animals; 2 mg/kg (0.8 mg/mL)): 0/5
- Number Dead/Number Treated, Combination (animals; 3 mg/kg (1.2 mg/mL)): 1/10
- Number Dead/Number Treated, Females (animals; 3 mg/kg (1.2 mg/mL)): 1/5
- Number Dead/Number Treated, Males (animals; 3 mg/kg (1.2 mg/mL)): 0/5
- Number Dead/Number Treated, Combination (animals; 4 mg/kg (1.6 mg/mL)): 10/10
- Number Dead/Number Treated, Females (animals; 4 mg/kg (1.6 mg/mL)): 5/5
- Number Dead/Number Treated, Males (animals; 4 mg/kg (1.6 mg/mL)): 5/5
- inhibition of rodent brain acetylcholinesterase [3, 15]: 80-90%
- inhibition of brain cholinesterase (average) ([3]; rodents, administered daily at low doses (Moss et al., 1988)): 90%
- inhibition of brain AChE ([4]; ex vivo, monkey cortex, without toxicity (Moss et al., 1988)): up to 80%
- inhibition of monkey brain acetylcholinesterase [4, 15]: 80-90%
- inhibition of brain AChE (brain AChE [5]): up to 80%
- inhibition of brain AChE (brain AChE [6]): up to 80%
- inhibition of acetylcholinesterase in the brain [7]: about 90%
- cognitive performance [8]: improved cognitive performance
- inhibition in the brain (brain AChE [9]): 90%
- inhibition of enzyme in the periphery [10]: less than 30%
- selectivity for inhibition of human cortex AChE compared to butyrylcholinesterase (human cortex AChE): highly selective
- reversing scopolamine-induced amnesia (rats [11]): highly effective
- reversing normal age-related memory impairment (aged rats): highly effective
- reversing ischemia-induced cognitive deficits (rats [12]): highly effective
- cognitive performance in patients [13]: improvement in cognitive performance
- septal choline acetyltransferase immunoreactivity [14]: more intense septal choline acetyltransferase immunoreactivity
